Test results taken from patent US4820834A, “Benzodiazepine analogs” (priority 1987, dated 1989).
Like-named read-outs stand apart in the source and are kept apart here.

Experiments:
[1] = molecular target: T1, CCK receptor (pancreas) (Rattus norvegicus, UniProt P30551); test: CCK Receptor Binding (Pancreas): inhibition of ^125 I-CCK-33 binding; design: species or system Male Sprague-Dawley rats; details: rat pancreas membranes, ^125 I-CCK-33, 37° C., 30 minutes
T1 construct: The whole pancreas was dissected free of fat tissue and was homogenized; from tissue; host or cells: rat pancreas membranes (Sprague-Dawley)
T1 sequence (P30551 1-444): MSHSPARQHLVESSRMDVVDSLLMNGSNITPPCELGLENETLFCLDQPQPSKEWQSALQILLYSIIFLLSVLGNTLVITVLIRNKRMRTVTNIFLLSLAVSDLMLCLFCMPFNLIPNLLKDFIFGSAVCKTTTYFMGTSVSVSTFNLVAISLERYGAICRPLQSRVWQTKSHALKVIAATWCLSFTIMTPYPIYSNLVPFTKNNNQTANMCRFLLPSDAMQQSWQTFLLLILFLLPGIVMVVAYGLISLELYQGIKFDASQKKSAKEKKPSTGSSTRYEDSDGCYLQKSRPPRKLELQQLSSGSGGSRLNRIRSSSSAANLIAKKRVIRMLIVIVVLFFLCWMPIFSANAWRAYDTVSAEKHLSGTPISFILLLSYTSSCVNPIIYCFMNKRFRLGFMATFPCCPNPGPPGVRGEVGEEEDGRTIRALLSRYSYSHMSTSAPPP
How it was run: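 Rat (male Sprague-Dawley) pancreatic membranes in 50 mM Tris HCl pH 7.7 with DTT, bacitracin, PMSF and o-phenanthroline; ^125I-Bolton Hunter-labelled CCK-33 as radioligand. Incubation 30 min at 37° C, separation by centrifugation, pellet gamma-counted; Scatchard analysis by diluting ^125I-CCK-33 with increasing CCK-33.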

[2] = molecular target: T2, CCK receptor (brain, cerebral cortex) (Cavia porcellus, UniProt H0VZC5); test: biochemical; format: binding, Male Hartley guinea pigs; details: guinea pig cerebral cortex, ^125 I-CCK-33, 25° C., 2 hours
T2 construct: Cerebral cortex was dissected and used as a receptor source; from tissue; host or cells: guinea pig cerebral cortex membranes (male Hartley)
T2 sequence (H0VZC5 1-426): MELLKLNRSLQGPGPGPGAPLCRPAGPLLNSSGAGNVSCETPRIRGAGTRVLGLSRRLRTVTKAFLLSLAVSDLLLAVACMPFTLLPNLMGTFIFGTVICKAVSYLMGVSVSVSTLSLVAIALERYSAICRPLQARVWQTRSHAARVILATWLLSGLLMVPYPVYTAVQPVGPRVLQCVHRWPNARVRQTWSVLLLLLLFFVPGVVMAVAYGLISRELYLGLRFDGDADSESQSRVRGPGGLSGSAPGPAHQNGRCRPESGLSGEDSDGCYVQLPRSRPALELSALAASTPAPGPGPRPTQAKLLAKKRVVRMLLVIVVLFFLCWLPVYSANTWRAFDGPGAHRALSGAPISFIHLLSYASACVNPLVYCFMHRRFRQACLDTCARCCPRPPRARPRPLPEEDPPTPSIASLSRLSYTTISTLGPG
How it was run: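 Guinea pig cerebral cortex homogenate as receptor source, with radiolabeled CCK-33 in HEPES buffer containing MgCl2, bacitracin, EGTA and 0.4% BSA. Incubation 2 h at 25°C; bound ligand pelleted by centrifugation and gamma-counted.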

[3] = molecular target: T3, Gastrin receptor (gastric glands) (Cavia porcellus, UniProt H0VZC5); test: Gastrin Receptor Binding in Guinea Pig Gastric Glands; design: species or system guinea pig (male Hartley); details: 25° C., 30 minutes
T3 construct: The washed guinea pig gastric glands prepared as above were resuspended; from tissue; host or cells: guinea pig gastric mucosal glands (male Hartley)
T3 sequence (H0VZC5 1-426): T2 sequence (H0VZC5 1-426)

[4] = read-out: IC50 ^125 I-CCK Pancreas
[5] = IC50 ^125 I-Gastrin Gastric Glands
[6] = read-out: IC50 ^125 I-CCK Brain
[7] = ^125 I-gastrin, read-out: IC50 ^125 I-Gastrin Gastric Glands

SMILES: CN1C(=O)C(NC(=O)Nc2ccc(Br)cc2)N=C(c2ccccc2)c2ccccc21 (stereo not drawn) [Example 255]
- IC50 [1, 4]: 0.13 µM
- IC50 ([2]; IC50 ^125 I-CCK Brain): 0.048 µM
- IC50 [3, 5]: 0.032 µM

SMILES: CN1C(=O)C(NC(=O)Nc2ccc([N+](=O)[O-])cc2)N=C(c2ccccc2)c2ccccc21 (stereo not drawn) [Example 256, N-(4-Nitrophenyl)-N'-(2,3-dihydro-1-methyl-2-oxo-5-phenyl-1H-1,4-benzodiazepin-3-yl)-urea]
- IC50 [1, 4]: 0.21 µM
- IC50 [2, 6]: 0.046 µM
- IC50 [3, 7]: 0.0098 µM

SMILES: CN1C(=O)C(NC(=O)Nc2ccc(Cl)c(Cl)c2)N=C(c2ccccc2)c2ccccc21 (stereo not drawn) [Example 257, N-(3,4-Dichlorophenyl)-N'-(2,3-dihydro-1-methyl-2-oxo-5-phenyl-1H-1,4-benzodiazepin-3-yl)-urea]
- IC50 [1, 4]: 0.026 µM
- IC50 ([2]; IC50 ^125 I-CCK Brain): 0.067 µM
- IC50 [3, 5]: 0.048 µM

SMILES: CN1C(=O)C(NC(=O)Nc2ccc(Cl)cc2Cl)N=C(c2ccccc2)c2ccccc21 (stereo not drawn) [Example 258, N-(2,4-Dichlorophenyl)-N'-(2,3-dihydro-1-methyl-2-oxo-5-phenyl-1H-1,4-benzodiazepin-3-yl)-urea]
- IC50 [1, 4]: 0.003 µM
- IC50 ([2]; IC50 ^125 I-CCK Brain): 0.22 µM
- IC50 [3, 5]: 0.06 µM

SMILES: CN1C(=O)C(NC(=O)Nc2ccc(F)cc2)N=C(c2ccccc2)c2ccccc21 (stereo not drawn) [Example 259, N-(2,3-Dihydro-1-methyl-2-oxo-5-phenyl-1H-1,4-benzodiazepin-3-yl)-N'-(4-fluorophenyl)-urea]
- IC50 [1, 4]: 0.046 µM
- IC50 [2, 6]: 0.066 µM
- IC50 [3, 7]: 0.014 µM

SMILES: CN1C(=O)C(NC(=O)NC(C)(C)C)N=C(c2ccccc2)c2ccccc21 (stereo not drawn) [Example 260, N-(2,3-Dihydro-1-methyl-2-oxo-5-phenyl-1H-1,4-benzodiazepin-3-yl)-N'-(1,1-dimethylethyl)-urea]
- IC50 [1, 4]: 6.8 µM
- IC50 ([2]; IC50 ^125 I-CCK Brain): 38 µM
- IC50 [3, 5]: > 1 µM

SMILES: C[C@@H](NC(=O)NC1N=C(c2ccccc2)c2ccccc2N(C)C1=O)c1ccccc1 (stereo partly drawn) [Example 261, N-(2,3-Dihydro-1-methyl-2-oxo-5-phenyl-1H-1,4-benzodiazepin-3-yl)-N'-((R)1-phenylethyl)-urea]
- IC50 ([1]; IC50 ^125 I-CCK Pancreas): 0.43 µM
- IC50 ([2]; IC50 ^125 I-CCK Brain): 11 µM
- IC50 [3, 7]: 3.2 µM

SMILES: CN1C(=O)C(NC(=O)NC2CCCCC2)N=C(c2ccccc2)c2ccccc21 (stereo not drawn) [Example 262, N-Cyclohexyl-N'-(2,3-dihydro-1-methyl-2-oxo-5-phenyl-1H-1,4-benzodiazepin-3-yl)-urea]
- IC50 [1, 4]: 2.4 µM
- IC50 ([2]; IC50 ^125 I-CCK Brain): 3 µM
- IC50 [3, 5]: 0.39 µM

SMILES: CN1C(=O)C(NC(=O)Nc2cccc([N+](=O)[O-])c2)N=C(c2ccccc2)c2ccccc21 (stereo not drawn) [Example 264, N-(2,3-Dihydro-1-methyl-2-oxo-5-phenyl-1H-1,4-benzodiazepin-3-yl)-N'-(3-nitrophenyl)-urea]
- IC50 [1, 4]: 0.034 µM
- IC50 ([2]; IC50 ^125 I-CCK Brain): 0.011 µM
- IC50 [3, 5]: 0.006 µM

SMILES: CN1C(=O)C(NC(=O)Nc2cccc(Cl)c2)N=C(c2ccccc2)c2ccccc21 (stereo not drawn) [Example 265, N-(3-Chlorophenyl)-N'-(2,3-dihydro-1-methyl-2-oxo-5-phenyl-1H-1,4-benzodiazepin-3-yl)urea]
- IC50 [1, 4]: 0.0082 µM
- IC50 ([2]; IC50 ^125 I-CCK Brain): 0.0098 µM
- IC50 [3, 5]: 0.0031 µM

SMILES: COc1cccc(NC(=O)N[C@@H]2N=C(c3ccccc3)c3ccccc3N(C)C2=O)c1 [Example 266, (R)-N-(2,3-Dihydro-1-methyl-2-oxo-5-phenyl-1H-1,4-benzodiazepin-3-yl)-N'-(3-methoxyphenyl)-urea]
- IC50 [1, 4]: 0.6 µM
- IC50 ([2]; IC50 ^125 I-CCK Brain): 0.0022 µM
- IC50 [3, 7]: 0.0013 µM

SMILES: COc1cccc(NC(=O)N[C@H]2N=C(c3ccccc3)c3ccccc3N(C)C2=O)c1 [Example 267, (S)-N-(2,3-Dihydro-1-methyl-2-oxo-5-phenyl-1H-1,4-benzodiazepin-3-yl)-N'-(3-methoxyphenyl)-urea]
- IC50 [1, 4]: 0.0013 µM
- IC50 ([2]; IC50 ^125 I-CCK Brain): 0.29 µM
- IC50 [3, 7]: 0.19 µM

SMILES: COc1cccc(CC(=O)N[C@H]2N=C(c3ccccc3)c3ccccc3N(C)C2=O)c1 [Example 268, (S)-N-(2,3-Dihydro-1-methyl-2-oxo-5-phenyl-1H-1,4-benzodiazepin-3-yl)-3-methoxybenzeneacetamide]
- IC50 ([1]; IC50 ^125 I-CCK Pancreas): 0.33 µM
- IC50 [2, 6]: 2.1 µM
- IC50 [3, 7]: 0.42 µM

SMILES: COc1cccc(CC(=O)N[C@@H]2N=C(c3ccccc3)c3ccccc3N(C)C2=O)c1 [Example 269, (R)-N-(2,3-Dihydro-1-methyl-2-oxo-5-phenyl-1H-1,4-benzodiazepin-3-yl)-3-methoxybenzenacetamide]
- IC50 ([1]; IC50 ^125 I-CCK Pancreas): 45 µM
- IC50 [2, 6]: 0.69 µM
- IC50 [3, 7]: 0.45 µM

SMILES: CN1C(=O)C(NC(=O)Nc2ccccc2[N+](=O)[O-])N=C(c2ccccc2)c2ccccc21 (stereo not drawn) [Example 270, N-(2,3-Dihydro-1-methyl-2-oxo-5-phenyl-1H-1,4-benzodiazepin-3-yl)-N'-(2-nitrophenyl)-urea]
- IC50 [1, 4]: 0.003 µM
- IC50 ([2]; IC50 ^125 I-CCK Brain): 1.2 µM
- IC50 [3, 5]: 0.5 µM

SMILES: CN1C(=O)C(NC(=O)Nc2cccc(F)c2)N=C(c2ccccc2)c2ccccc21 (stereo not drawn) [Example 271, N-(2,3-Dihydro-1-methyl-2-oxo-5-phenyl-1H-1,4-benzodiazepin-3-yl)-N'-(3-fluorophenyl)-urea]
- IC50 [1, 4]: 0.01 µM
- IC50 ([2]; IC50 ^125 I-CCK Brain): 0.054 µM
- IC50 [3, 5]: 0.01 µM

SMILES: CN1C(=O)C(NC(=O)Nc2cccc(Br)c2)N=C(c2ccccc2)c2ccccc21 (stereo not drawn) [Example 272, N-(3-Bromophenyl)-N'-(2,3-dihydro-1-methyl-2-oxo-5-phenyl-1H-1,4-benzodiazepin-3-yl)-urea]
- IC50 [1, 4]: 0.0044 µM
- IC50 ([2]; IC50 ^125 I-CCK Brain): 0.005 µM
- IC50 [3, 5]: 0.0028 µM

SMILES: CN1C(=O)C(NC(=O)Nc2cccc3ccccc23)N=C(c2ccccc2)c2ccccc21 (stereo not drawn) [Example 273, N-(2,3-Dihydro-1-methyl-2-oxo-5-phenyl-1H-1,4-benzodiazepin-3-yl)-N'-1-naphthalenyl-urea]
- IC50 ([1]; IC50 ^125 I-CCK Pancreas): 0.0086 µM
- IC50 [2, 6]: 0.079 µM
- IC50 [3, 7]: 0.057 µM

SMILES: COc1cc(NC(=O)NC2N=C(c3ccccc3)c3ccccc3N(C)C2=O)cc(OC)c1 (stereo not drawn) [Example 274]
- IC50 [1, 4]: 0.31 µM
- IC50 [2, 6]: 2.3 µM
- IC50 [3, 7]: 1.6 µM

SMILES: COc1cccc(NC(=O)NC2N=C(c3ccccc3)c3ccccc3NC2=O)c1 (stereo not drawn) [Example 275, N-(2,3-Dihydro-2-oxo-5-phenyl-1H-1,4-benzodiazepin-3-yl)-N'-(3-methoxyphenyl)-urea]
- IC50 ([1]; IC50 ^125 I-CCK Pancreas): 0.02 µM
- IC50 ([2]; IC50 ^125 I-CCK Brain): 0.11 µM
- IC50 [3, 5]: 0.12 µM

SMILES: CN1C(=O)[C@@H](NC(=O)Nc2ccccc2Cl)N=C(c2ccccc2)c2ccccc21 [Example 276, (S)-N-(2,3-Dihydro-1-methyl-2-oxo-5-phenyl-1H-1,4-benzodiazepin-3-yl)-N'-(2-chlorophenyl)-urea]
- IC50 ([1]; IC50 ^125 I-CCK Pancreas): 0.00039 µM
- IC50 [2, 6]: 0.28 µM
- IC50 [3, 7]: 0.24 µM

SMILES: CN1C(=O)C(NC(=S)Nc2ccccc2)N=C(c2ccccc2)c2ccccc21 (stereo not drawn) [Example 277, N-(2,3-Dihydro-1-methyl-2-oxo-5-phenyl-1H-1,4-benzodiazepin-3-yl)-N'-phenylthiourea]
- IC50 ([1]; IC50 ^125 I-CCK Pancreas): 0.018 µM
- IC50 [2, 6]: 0.86 µM
- IC50 [3, 7]: 2.6 µM

SMILES: COc1ccccc1NC(=O)NC1N=C(c2ccccc2)c2ccccc2N(C)C1=O (stereo not drawn) [Example 278, N-(2,3-Dihydro-1-methyl-2-oxo-5-phenyl-1H-1,4-benzodiazepin-3-yl)-N'-(2-methoxyphenyl)-urea]
- IC50 [1, 4]: 0.6 µM
- IC50 [2, 6]: 1.2 µM
- IC50 [3, 7]: 1 µM

SMILES: CC(C)(C)C(=O)OCOC(=O)CN1C(=O)C(NC(=O)c2cc3ccccc3[nH]2)N=C(c2ccccc2)c2ccccc21 (stereo not drawn) [Example 279, 1-Pivaloyloxymethyloxycarbonylmethyl-1,3-dihydro-3-(2-indolecarbonylamino)-5-phenyl-2H-1,4-benzodiazepin-2-one]
- IC50 ([1]; IC50 ^125 I-CCK Pancreas): 0.011 µM
- IC50 [2, 6]: 0.31 µM
- IC50 [3, 7]: 0.6 µM

SMILES: COc1cccc(NC(=O)NC2N=C(c3ccccc3)c3ccccc3NC2=S)c1 (stereo not drawn) [Example 280, N-(2,3-Dihydro-5-phenyl-2-thioxo-1H-1,4-benzodiazepin-3-yl)-N'-(3-methoxyphenyl)-urea]
- IC50 ([1]; IC50 ^125 I-CCK Pancreas): 0.015 µM
- IC50 ([2]; IC50 ^125 I-CCK Brain): 0.97 µM
- IC50 [3, 5]: 0.25 µM
